Source: patent US6540977B1, “Cyanidin compositions and therapeutic and diagnostic uses therefor” (Medarex, Inc., priority 1996, dated 2003)

Molecular target: T1, human FcγRI (Homo sapiens, UniProt P12314)
T1 construct: expressed in transfected cells; host or cells: mouse IIA1.6 B cells
Test: Staining of IIA1.6 B cell transfectants expressing human FcγRI
Type: binding
Settings: unconjugated Cy5; FcγRI transfectants vs untransfected IIA1.6
Protocol: To assess the specificity of binding of PE-Cy5 conjugates to FcγRI, a series of FcR-transfectants, each transfectant engineered to express one FcR molecular type, was tested. Recipient IIA1.6 cells mouse B cells are devoid of IgG receptors; samples were transfected with each of the genes encoding the different human Fc receptors for IgG (FcγRI, CD64; Van Vugt M J, et al., 1996, Blood 87:3593; FcγRIIa, CD32; FcγRIIb1, CD32, Van den Herik-Oudijk I E, et al., 1995, Blood 85:2202) and for IgA receptor FcαR, CD89 (Morton H C, et al., 1995, J Biol Chem 270:29781) derived from the A20 B cell lymphoma (Morton, H C, et al., supra). Transfectants were stained with different PE-Cy5 mAb conjugates (covalently linked to antibodies to CD3, CD4, or CD8). […]
Untransfected IIA1.6 B-cells and these cells transfected with the gene for human FcγRI (see references, supra), 2×10^5 cells in 20 μl per test, were stained for one hour at 4° C. with 10 μl Cy5. […] All fluorescence experiments were performed using band filter gates for excitation and emission wavelengths appropriate for PE-Cy5 described supra, so that diminished activity for Cy5 in comparison with PE and PE-Cy5 is due to comparatively low absorption by Cy5 at 488 nm.

T1 sequence (P12314 16-374): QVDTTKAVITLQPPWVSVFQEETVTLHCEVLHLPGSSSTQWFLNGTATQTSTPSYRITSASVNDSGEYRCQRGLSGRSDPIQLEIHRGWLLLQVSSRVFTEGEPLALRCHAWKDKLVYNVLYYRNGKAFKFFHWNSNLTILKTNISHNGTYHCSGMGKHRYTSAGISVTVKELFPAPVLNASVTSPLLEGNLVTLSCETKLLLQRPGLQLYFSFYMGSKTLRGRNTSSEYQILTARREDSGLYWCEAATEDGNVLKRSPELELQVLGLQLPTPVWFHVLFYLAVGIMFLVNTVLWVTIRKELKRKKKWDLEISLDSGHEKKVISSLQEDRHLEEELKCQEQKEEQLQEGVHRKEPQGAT

- mean fluorescent intensity of transfectants versus control cells: at least an order of magnitude greater
Substance: 5,5′-bis-sulfo-1,1′-(ε-carboxyphenyl)-3,3,3′,3′-tetramethylindodicarbocyanin-disuccinimidyl ester [Cy5]
